Results published in patent US8952024B2, “Herbicidal pyrimidone derivatives” (E I du Pont de Nemours and Company, priority 2009, dated 2015).

Tests used:
Assay type in all cases: in vivo
[1] = system: barnyardgrass (Echinochloa crus-galli); test: Test A pre-/postemergence plant response
Outline: (§1)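 Seeds planted in loam soil/sand blend; test chemicals in non-phytotoxic solvent mixture with surfactant applied as directed soil spray preemergence and, concurrently, postemergence to plants 2–10 cm tall at one- to two-leaf stage. Greenhouse ~10 days; visual injury vs untreated controls, 0 (no effect) to 100 (complete control).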

corn (Zea mays) = test: Test A pre-/postemergence plant response
Outline: as §1

[2] = system: giant foxtail (Setaria faberii); test: Test A pre-/postemergence plant response
Outline: as §1

[3] = system: large crabgrass (Digitaria sanguinalis); test: Test A pre-/postemergence plant response
Outline: as §1

[4] = system: morningglory (Ipomoea spp.); test: Test A pre-/postemergence plant response
Outline: as §1

[5] = system: pigweed (Amaranthus retroflexus); test: Test A pre-/postemergence plant response
Outline: as §1

[6] = system: velvetleaf (Abutilon theophrasti); test: Test A pre-/postemergence plant response
Outline: as §1

[7] = system: wheat (Triticum aestivum); test: Test A pre-/postemergence plant response
Outline: as §1

[8] = system: winter barley (Hordeum vulgare); test: Test B postemergence plant response
Outline: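 Plants grown in peat/vermiculite medium were sprayed postemergence at 2–18 cm height (1- to 4-leaf stage). After 13–15 days in the greenhouse, response was rated visually against untreated controls on a 0–100 scale (0 no effect, 100 complete control).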

[9] = system: barnyardgrass (Echinochloa crus-galli); test: Test B flooded paddy test; details: for Plant response rating, Flood, Barnyardgrass: 250 g ai/ha, flooded paddy test, visual rating on 0 to 100 scale (0 no effect, 100 complete control) after 13 to 15 days; for Plant response rating, Barnyardgrass: Flood (flooded paddy test), 13 to 15 days
Outline: (§2)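 Rice, umbrella sedge, ducksalad and barnyardgrass were grown to the 2-leaf stage, flooded to 3 cm, and compound was applied directly to the paddy water, with that depth kept throughout. After 13 to 15 days in the greenhouse, plants were visually rated against controls on a 0 (no effect) to 100 (complete control) scale.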

[10] = system: ducksalad (Heteranthera limosa); test: Test B flooded paddy test; details: for Plant response rating, Flood, Ducksalad: 250 g ai/ha, flooded paddy test, visual rating on 0 to 100 scale (0 no effect, 100 complete control) after 13 to 15 days; for Plant response rating, Ducksalad: Flood (flooded paddy test), 13 to 15 days
Outline: as §2

rice (Oryza sativa) = test: Test B flooded paddy test; details: for Plant response rating, Flood, Rice: 250 g ai/ha, flooded paddy test, visual rating on 0 to 100 scale (0 no effect, 100 complete control) after 13 to 15 days; for Plant response rating, Rice: Flood (flooded paddy test), 13 to 15 days
Outline: as §2

[11] = system: umbrella sedge (Cyperus difformis); test: Test B flooded paddy test; details: for Plant response rating, Flood, Sedge, Umbrella: 250 g ai/ha, flooded paddy test, visual rating on 0 to 100 scale (0 no effect, 100 complete control) after 13 to 15 days; for Plant response rating, Sedge, Umbrella: Flood (flooded paddy test), 13 to 15 days
Outline: as §2

[12] = Postemergence, 125 g ai/ha, visual injury, 0 to 100 scale (0 no effect, 100 complete control), approx. ten days
[13] = Postemergence, 500 g ai/ha, 0 to 100 scale, 0 = no effect, 100 = complete control, approx. ten days
[14] = Preemergence, 125 g ai/ha, 0 to 100 scale, 0 = no effect, 100 = complete control
[15] = Preemergence, 500 g ai/ha, visual injury, 0 to 100 scale (0 no effect, 100 complete control), approx. ten days
[16] = 31 g ai/ha, scale of 0 to 100 where 0 is no effect and 100 is complete control
[17] = 62 g ai/ha, scale of 0 to 100 where 0 is no effect and 100 is complete control
[18] = 125 g ai/ha, scale 0 to 100, 0 is no effect, 100 is complete control
[19] = Postemergence, 125 g ai/ha, 0 to 100 scale where 0 is no effect and 100 is complete control
[20] = Flood, 31 g ai/ha, scale 0 to 100 (0 no effect, 100 complete control)

For `Cc1ccc(Cl)cc1-n1c(-c2ccccc2)ncc(C(=O)C2=C(O)CCCC2=O)c1=O` [Compound 52], the “Barnyardgrass plant response rating” value [1, 12] was 90, the “Plant response rating, Barnyardgrass” value [1, 13] was 90 and the “Plant response rating, Barnyardgrass” value [1, 14] was 40. The “Plant response rating, Barnyardgrass” value [1, 15] was 100, the “Corn plant response rating” value (corn (Zea mays); [12]) was 0 and the “Plant response rating, Corn” value (corn (Zea mays); [13]) was 70. The “Plant response rating, Corn” value (corn (Zea mays); [14]) was 0, the “Plant response rating, Corn” value (corn (Zea mays); [15]) was 10 and the “Foxtail, Giant plant response rating” value [2, 12] was 90. For the same compound, the “Plant response rating, Foxtail, Giant” value [2, 13] was 100, the “Plant response rating, Foxtail, Giant” value [2, 14] was 80 and the “Plant response rating, Foxtail, Giant” value [2, 15] was 100. The “Crabgrass, Large plant response rating” value [3, 12] was 90, the “Plant response rating, Crabgrass, Large” value [3, 13] was 100 and the “Plant response rating, Crabgrass, Large” value [3, 14] was 90. For the same compound, the “Plant response rating, Crabgrass, Large” value [3, 15] was 100, the “Morningglory plant response rating” value [4, 12] was 100 and the “Plant response rating, Morningglory” value [4, 13] was 100. For the same compound, the “Plant response rating, Morningglory” value [4, 14] was 30, the “Plant response rating, Morningglory” value [4, 15] was 90 and the “Pigweed plant response rating” value [5, 12] was 90. For the same compound, the “Plant response rating, Pigweed” value [5, 13] was 100, the “Plant response rating, Pigweed” value [5, 14] was 100 and the “Plant response rating, Pigweed” value [5, 15] was 100. The “Velvetleaf plant response rating” value [6, 12] was 100, the “Plant response rating, Velvetleaf” value [6, 13] was 100 and the “Plant response rating, Velvetleaf” value [6, 14] was 100. The “Plant response rating, Velvetleaf” value [6, 15] was 100, the “Wheat plant response rating” value [7, 12] was 0 and the “Plant response rating, Wheat” value [7, 13] was 40. For the same compound, the “Plant response rating, Wheat” value [7, 14] was 0, the “Plant response rating, Wheat” value [7, 15] was 0 and the “Plant response rating, Barley” value ([8]; 31 g ai/ha, postemergence, scale 0 to 100, 0 is no effect, 100 is complete control) was 0. The “Plant response rating, Barley” value ([8]; Postemergence, 62 g ai/ha, scale 0 (no effect) to 100 (complete control), 13 to 15 days) was 0, the “Plant response rating, Barley” value ([8]; Postemergence, 125 g ai/ha, visual rating after 13 to 15 days, scale 0 (no effect) to 100 (complete control)) was 25 and the “Plant response rating, Barley” value ([8]; Postemergence, 250 g ai/ha, scale 0 to 100 (0 no effect, 100 complete control)) was 25. For the same compound, the “Plant response rating, Flood, Barnyardgrass” value [9] was 55, the “Plant response rating, Barnyardgrass” value [9, 16] was 0 and the “Plant response rating, Barnyardgrass” value [9, 17] was 0. For the same compound, the “Plant response rating, Barnyardgrass” value [9, 18] was 40, the “Plant response rating, Flood, Ducksalad” value [10] was 70 and the “Plant response rating, Ducksalad” value [10, 16] was 0. For the same compound, the “Plant response rating, Ducksalad” value [10, 17] was 0, the “Plant response rating, Ducksalad” value [10, 18] was 40 and the “Plant response rating, Flood, Rice” value (rice (Oryza sativa)) was 60. For the same compound, the “Plant response rating, Rice” value (rice (Oryza sativa); [16]) was 0, the “Plant response rating, Rice” value (rice (Oryza sativa); [17]) was 0 and the “Plant response rating, Rice” value (rice (Oryza sativa); [18]) was 50. For the same compound, the “Plant response rating, Flood, Sedge, Umbrella” value [11] was 40, the “Plant response rating, Sedge, Umbrella” value [11, 16] was 20 and the “Plant response rating, Sedge, Umbrella” value [11, 17] was 30. For the same compound, the “Plant response rating, Sedge, Umbrella” value [11, 18] was 30.

`O=C1CCCC(O)=C1C(=O)c1cnc(-c2ccccc2)n(C2CCCCCC2)c1=O` [Compound 130] was tested, and the “Plant response rating, Barnyardgrass” value [1, 19] was 100, the “Plant response rating, Barnyardgrass” value [1, 13] was 100 and the “Plant response rating, Barnyardgrass” value [1, 14] was 20. The “Plant response rating, Barnyardgrass” value [1, 15] was 90, the “Plant response rating, Corn” value (corn (Zea mays); [19]) was 10 and the “Plant response rating, Corn” value (corn (Zea mays); [13]) was 50. For the same compound, the “Plant response rating, Corn” value (corn (Zea mays); [14]) was 20, the “Plant response rating, Corn” value (corn (Zea mays); [15]) was 30 and the “Plant response rating, Foxtail, Giant” value [2, 19] was 80. For the same compound, the “Plant response rating, Foxtail, Giant” value [2, 13] was 90, the “Plant response rating, Foxtail, Giant” value [2, 14] was 20 and the “Plant response rating, Foxtail, Giant” value [2, 15] was 90. The “Plant response rating, Crabgrass, Large” value [3, 19] was 70, the “Plant response rating, Crabgrass, Large” value [3, 13] was 100 and the “Plant response rating, Crabgrass, Large” value [3, 14] was 40. For the same compound, the “Plant response rating, Crabgrass, Large” value [3, 15] was 100, the “Plant response rating, Morningglory” value [4, 19] was 100 and the “Plant response rating, Morningglory” value [4, 13] was 100. For the same compound, the “Plant response rating, Morningglory” value [4, 14] was 10, the “Plant response rating, Morningglory” value [4, 15] was 80 and the “Plant response rating, Pigweed” value [5, 19] was 100. For the same compound, the “Plant response rating, Pigweed” value [5, 13] was 100, the “Plant response rating, Pigweed” value [5, 14] was 90 and the “Plant response rating, Pigweed” value [5, 15] was 100. For the same compound, the “Plant response rating, Velvetleaf” value [6, 19] was 100, the “Plant response rating, Velvetleaf” value [6, 13] was 100 and the “Plant response rating, Velvetleaf” value [6, 14] was 80. The “Plant response rating, Velvetleaf” value [6, 15] was 90, the “Plant response rating, Wheat” value [7, 19] was 0 and the “Plant response rating, Wheat” value [7, 13] was 30. The “Plant response rating, Wheat” value [7, 14] was 0, the “Plant response rating, Wheat” value [7, 15] was 0 and the “Barley plant response rating (0 to 100 scale)” value ([8]; 62 g ai/ha, postemergence, 0 is no effect, 100 is complete control, 13 to 15 days) was 0. The “Plant response rating, Barley” value ([8]; Postemergence, 31 g ai/ha, 0 to 100 scale (0 no effect, 100 complete control)) was 0, the “Plant response rating, Barley” value ([8]; Postemergence, 125 g ai/ha, scale 0 to 100 (0 no effect, 100 complete control)) was 0 and the “Plant response rating, Barley” value ([8]; Postemergence, 250 g ai/ha, scale 0 to 100 (0 no effect, 100 complete control), 13 to 15 days) was 0. The “Plant response rating, Flood, Barnyardgrass” value [9] was 85, the “Plant response rating, Barnyardgrass” value [9, 17] was 0 and the “Plant response rating, Barnyardgrass” value [9, 18] was 0. For the same compound, the “Barnyardgrass plant response rating” value [9, 20] was 0, the “Plant response rating, Flood, Ducksalad” value [10] was 100 and the “Plant response rating, Ducksalad” value [10, 17] was 80. For the same compound, the “Plant response rating, Ducksalad” value [10, 18] was 80, the “Ducksalad plant response rating” value [10, 20] was 60 and the “Plant response rating, Flood, Rice” value (rice (Oryza sativa)) was 25. The “Plant response rating, Rice” value (rice (Oryza sativa); [17]) was 0, the “Plant response rating, Rice” value (rice (Oryza sativa); [18]) was 0 and the “Rice plant response rating” value (rice (Oryza sativa); [20]) was 0. For the same compound, the “Plant response rating, Flood, Sedge, Umbrella” value [11] was 100, the “Plant response rating, Sedge, Umbrella” value [11, 17] was 60 and the “Plant response rating, Sedge, Umbrella” value [11, 18] was 75. For the same compound, the “Sedge, Umbrella plant response rating” value [11, 20] was 40.
